Structures can show the parent of a compound that is named as a salt.

Results on 5 compounds are retold here after US20250281430A1, “BUPROPION AS A MODULATOR OF DRUG ACTIVITY” (ANTECIP BIOVENTURES II LLC, priority 2022, published 2025).

A short description of series [1]: Pharmacokinetics after administration of the subject combination. The following applies: for Cmax relative to the peak level of bupropion: after administration of the subject combination; for apparent elimination half-life (metabolite): subject combination.
A short description of series [2]: Solubility of the powder in water. In kind it is physicochemical.

Regarding `COc1ccc2c(c1)[C@]13CCCC[C@@H]1[C@H](C2)N(C)CC3` [dextromethorphan, reference compound], the “dose proportionality of pharmacokinetics (AUC and Cmax)” value in series [1] (co-administered with bupropion, steady state, dextromethorphan 30 to 60 mg, bupropion 75 to 150 mg) is “nonlinear pharmacokinetics at steady state”. For the same compound, the “Cmax when administered with food” value in series [1] (subject combination with food) is recorded as “unchanged”.

With `CC(NC(C)(C)C)C(=O)c1cccc(Cl)c1` (racemic) [Bupropion hydrochloride, (±)-1-(3-chlorophenyl)-2-[(1,1-dimethylethyl)amino]-1-propanone hydrochloride], the solubility in water result in series [2] was “highly soluble in water”.

In the case of `C[C@H]1NC(C)(C)CO[C@]1(O)c1cccc(Cl)c1` [hydroxybupropion], in series [1], the “Cmax relative to the peak level of bupropion” value is “approximately 14 times” and the “apparent elimination half-life (metabolite)” value (“apparent elimination half-life” for short) is “approximately 35 hours”.

Consider `CC(NC(C)(C)C)C(O)c1cccc(Cl)c1` (stereo not drawn) [erythrohydroxybupropion], for which, in series [1], the “Cmax relative to the peak level of bupropion” value is reported as “approximately equal to” and the “apparent elimination half-life” value is approximately 44 h.

`C[C@H](NC(C)(C)C)[C@@H](O)c1cccc(Cl)c1` [threohydroxybupropion]: in series [1], the “Cmax relative to the peak level of bupropion” value is on record as “about 5 times” and the “apparent elimination half-life” value was approximately 33 h.
